Laboratory results as given in US20200102349A1, “PEPTIDE REAGENTS AND METHODS FOR DETECTION AND TARGETING OF DYSPLASIA, EARLY CANCER AND CANCER” (THE REGENTS OF THE UNIVERSITY OF MICHIGAN, priority 2014, published 2020).

How the values were obtained:
[1] = Pharmacology/toxicology study in rats, single dose oral gavage; format: in vivo; settings: for Blood tests (days 2 and 15) / Clinical signs / Necropsy (days 2 and 15) / Observe (morbidity, mortality, injury, body weights, food and water consumption) / Urinalysis: oral gavage; as to Blood tests (days 2 and 15): key: NAD: No abnormalities detected; as to Clinical signs: key: NAD: No abnormalities detected; as to Necropsy (days 2 and 15): key: NAD: No abnormalities detected; as to Observe (morbidity, mortality, injury, body weights, food and water consumption): key: NAD: No abnormalities detected; as to Urinalysis: key: NAD: No abnormalities detected
Description: A rigorous pharmacology/toxicology study was performed in animals (MPI Research) for each peptide to provide pre-clinical evidence for safety. A total of 24 male and 24 female rats (CD®[Crl:CD® (SD)] (Charles River) were used in each study. At 8 weeks of age, the animals were randomly assigned to 4 groups, including 3 treatment and 1 control. Dose levels of 0.0086, 0.026, and 0.86 mg/kg were used for QRH*-Cy5, and 0.186, 0.32, and 1.08 mg/kg were used for KSP*-IRDye800. The control group received 10 mL/kg of PBS as vehicle. The vehicle and test articles were administered by single dose oral gavage. Clinical signs, including morbidity, mortality, and injury, were monitored twice daily. Laboratory tests and necropsy were evaluated in 3 animals/sex/dose on days 2 and 15.

[2] = Phase 1 first-in-human safety study, oral administration; format: in vivo; settings: n=25 human subjects, 0.5 mg or 1.2 mg
Description: A first-in-human study was performed to establish clinical evidence of safety for each peptide. An Investigational New Drug (IND) application (sponsor DKT) was prepared, and submitted for review to the US Food and Drug Administration (FDA). […] The study protocols were reviewed and approved by the Institutional Review Board (IRB) at the University of Michigan. These studies, including NCT02574858 (QRH*-Cy5) and NCT03161418 (KSP*-IRDye800), were registered online at ClinicalTrials.gov. A total of n=25 subjects was recruited for each study. All enrolled patients provided written informed consent. A dose escalation study was performed. The first n=3 subjects were administered 0.5 mg of peptide reconstituted in 5 mL of normal saline (0.9%) per oral. […] An electrocardiogram (EKG) was performed and vital signs were monitored. […] No images were collected during the safety study.

[3] = Stability of lyophilized cGMP peptides on storage; format: physicochemical; settings: KSP*-IRDye800 lyophilized, −20° C.; for Molecular: molecular weight by Q-TOF
From the text: QRHKPRE (SEQ ID NO: 1) was labeled with Cy5 via a GGGSK (SEQ ID NO: 18) linker to prevent steric hindrance. This sequence was selected using phage display methods for specific binding to EGFR.^22 KSPNPRF (SEQ ID NO: 26) was labeled with IRDye800 via a GGGSC (SEQ ID NO: 27) linker, hereafter KSP*-IRDye800. This sequence was identified using a structural model for specific binding to ErbB2.^23 The fluorophores used were chosen to minimize spectral overlap between absorbance and emission. QRH*-Cy5 and KSP*-IRDye800 were synthesized using current good manufacturing practices (cGMP) methods. Peptide stability was monitored by visual appearance, purity (HPLC), and molecular weight over the duration of the study.

ErbB2 = target: T1, ErbB2 (Homo sapiens, UniProt P04626); experiment: Multiplexed in vivo imaging of distal esophagus in patients, KSP*-IRDye800 channel
T1 construct: topically administered into the distal esophagus using a standard spray catheter; from tissue; host or cells: distal esophagus mucosa of Barrett's patients, in vivo
Description: A multi-modal scanning fiber endoscope (mmSFE) was designed to collect fluorescence and reflectance concurrently. A custom fiber-coupled multi-laser system (SpectraTEC, Blue Sky Research) provides illumination at λex=638 and 785 nm concurrently through a single mode fiber (SMF) to excite QRH*-Cy5 and KSP*-IRDye800, respectively. A 0.4 mm diameter metal coated piezo tube actuator (Nagamine) generates a spiral scan pattern at an average maximum deflection angle of about 70°. Large core (500 μm diameter) multi-mode fibers (MMF) with high numerical aperture (NA=0.6, Mitsubishi Rayon) are arranged around the instrument periphery to maximize light collection.^38 The diameter and rigid length of the distal tip were designed to pass forward easily through the working channel of a standard upper endoscope.
The optics used to separate and collect fluorescence from each peptide was contained within the base station (VerAvanti). A notch filter (NF, # NF03-785E-25, Semrock) was used to attenuate the excitation beam at λ=785 nm. Reflectance at λ=[…] was deflected by a dichroic beam splitter (BS1, # FF652-Di02, Semrock) to a multi-pixel photon counter (MPPC1, SiPM, Hamamatsu) for detection. Fluorescence from QRH*-Cy5 was deflected by a second beam splitter (BS2, # Di02-R785, Semrock) centered at λ=785 nm through a bandpass filter (BPF, FF01-697/58, Semrock) that transmits between 668-726 nm for detection by MPPC2. Fluorescence from KSP*-IRDye800 passes through BS2 and long pass filter (LPF, # BLP01-785R, Semrock) with cutoff at λ=805 nm and is detected by MPPC3. Kinematic filter cubes (DFM1/M, ThorLabs) were used to mount and align the optics.
Consecutive patients referred to Michigan Medicine for either evaluation or therapy of Barrett's neoplasia (LGD/HGD/EAC) were recruited. Inclusion criteria included: 1) history of Barrett's neoplasia, 2) medically able to tolerate upper endoscopy, and 3) age over 18. Exclusion criteria included: 1) history of esophagectomy and 2) on active chemotherapy or radiation protocol. The multiplexed imaging study was approved by the University of Michigan IRB, and was registered online at ClinicalTrials.gov (NCT03589443). […] Separate channels were used to record fluorescence images from QRH*-Cy5 and KSP*-IRDye800 and from reflectance at λ=638 nm. The conventional white light illumination was shut off during collection of fluorescence images to prevent interference. […]
Video streams with greater than 30 consecutive images (1 second) that had negligible artifacts, including debris, bubbles, pooling, and conventional white light, were extracted from the original recordings. Single frames from the target regions with high contrast and minimum motion blur and distortion were selected for intensity quantification. The frames were separated into two fluorescence channels and a co-registered reflectance image. Target/background (T/B) ratios were calculated for each fluorescence image as follows. […] Fluorescence regions with high intensity were segmented using the Chan-Vese algorithm,^39 where an active contour model was evolved iteratively to minimize the energy function, Eq. 1, defined by the weighted sum of the 1) boundary length, 2) area, and variance of intensity 3) inside and 4) outside of the segmented region. […]

[4] = system: Barrett's neoplasia (HGD/EAC); experiment: Multiplexed in vivo imaging of distal esophagus in patients, both channels combined; parameters: species or system human; settings: topical, 5 minutes incubation
Description: A multi-modal scanning fiber endoscope (mmSFE) was designed to collect fluorescence and reflectance concurrently. A custom fiber-coupled multi-laser system (SpectraTEC, Blue Sky Research) provides illumination at λex=638 and 785 nm concurrently through a single mode fiber (SMF) to excite QRH*-Cy5 and KSP*-IRDye800, respectively. A 0.4 mm diameter metal coated piezo tube actuator (Nagamine) generates a spiral scan pattern at an average maximum deflection angle of about 70°. […]
The optics used to separate and collect fluorescence from each peptide was contained within the base station (VerAvanti). […] Fluorescence from QRH*-Cy5 was deflected by a second beam splitter (BS2, # Di02-R785, Semrock) centered at λ=785 nm through a bandpass filter (BPF, FF01-697/58, Semrock) that transmits between 668-726 nm for detection by MPPC2. Fluorescence from KSP*-IRDye800 passes through BS2 and long pass filter (LPF, # BLP01-785R, Semrock) with cutoff at λ=805 nm and is detected by MPPC3. […]
Consecutive patients referred to Michigan Medicine for either evaluation or therapy of Barrett's neoplasia (LGD/HGD/EAC) were recruited. […] Separate channels were used to record fluorescence images from QRH*-Cy5 and KSP*-IRDye800 and from reflectance at λ=638 nm. The conventional white light illumination was shut off during collection of fluorescence images to prevent interference. […]

[5] = system: vascular endothelial growth factor A (VEGFA); settings: n=14 BE patients, topical and systemic; cited from earlier work
vascular endothelial growth factor A (VEGFA), sequence (P15692 207-311 limits assumed): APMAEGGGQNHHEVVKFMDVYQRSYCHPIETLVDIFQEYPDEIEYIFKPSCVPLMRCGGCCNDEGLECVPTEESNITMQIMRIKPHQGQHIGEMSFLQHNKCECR

Lys^1-Ser^2-Pro^3-Asn^4-Pro^5-Arg^6-Phe^7-Gly^8-Gly^9-Gly^10-Ser^11-Cys^12(IRDye800) [KSP*-IRDye800]
Blood tests (days 2 and 15) ([1]; KSP*-IRDye800 0.186 mg/kg): NAD
Clinical signs ([1]; KSP*-IRDye800 0.186 mg/kg): NAD
Necropsy (days 2 and 15) ([1]; KSP*-IRDye800 0.186 mg/kg): NAD
Observe (morbidity, mortality, injury, body weights, food and water consumption) ([1]; KSP*-IRDye800 0.186 mg/kg): NAD
Urinalysis ([1]; KSP*-IRDye800 0.186 mg/kg): NAD
Blood tests (days 2 and 15) ([1]; KSP*-IRDye800 0.32 mg/kg): NAD
Clinical signs ([1]; KSP*-IRDye800 0.32 mg/kg): NAD
Necropsy (days 2 and 15) ([1]; KSP*-IRDye800 0.32 mg/kg): NAD
Observe (morbidity, mortality, injury, body weights, food and water consumption) ([1]; KSP*-IRDye800 0.32 mg/kg): NAD
Urinalysis ([1]; KSP*-IRDye800 0.32 mg/kg): NAD
Blood tests (days 2 and 15) ([1]; KSP*-IRDye800 1.08 mg/kg): NAD
Clinical signs ([1]; KSP*-IRDye800 1.08 mg/kg): NAD
Necropsy (days 2 and 15) ([1]; KSP*-IRDye800 1.08 mg/kg): NAD
Observe (morbidity, mortality, injury, body weights, food and water consumption) ([1]; KSP*-IRDye800 1.08 mg/kg): NAD
Urinalysis ([1]; KSP*-IRDye800 1.08 mg/kg): NAD
acute adverse effects in animal pharmacology/toxicology study (GLP) ([1]; single dose oral gavage): No acute adverse effects
abnormalities in laboratory results, urinalysis, and EKG [2]: No abnormalities
adverse events (AE) [2]: no adverse events
Molecular ([3]; time 0): 2397.6
Molecular ([3]; time 12): 2397.5
Molecular ([3]; time 24): 2397.6
Molecular ([3]; time 36): 2397.6
Purity (HPLC) ([3]; time 0): 98.8%
Purity (HPLC) ([3]; time 6): 98.8%
Purity (HPLC) ([3]; time 12): 98.7%
Purity (HPLC) ([3]; time 18): 98.9%
Purity (HPLC) ([3]; time 24): 98.9%
Purity (HPLC) ([3]; time 30): 98.7%
Purity (HPLC) ([3]; time 36): 98.9%
mean (±SD) T/B ratio (ErbB2; HGD (n=7) and EAC (n=6)): 1.68±0.24
T/B ratio (ErbB2; LGD (n=1)): 1.14
mean (±SD) T/B ratio (ErbB2; SQ (n=3) and NDBE (n=6), topical, distal esophagus): 1.28±0.14
Accuracy (ErbB2; T/B ratio from KSP*-IRDye800 alone, HGD/EAC vs SQ/NDBE/LGD, LOOCV): 83%
AUC (ErbB2; T/B ratio from KSP*-IRDye800 alone, average of 1000 bootstrap samples): 0.95
fluorescence from regions of HGD and EAC in vivo [4]: Increased fluorescence intensities

Bevacizumab: antibody specific for VEGFA, repurposed for diagnostic imaging by labeling with IRDye800
increase in detection of early lesions using fluorescence compared with HD-WLE and NBI [5]: about 33%
